According to the supplement of paper PMC10307832:

What was measured:
Assay in all cases: relative viability (nuclei count vs DMSO), 5 days (fraction); higher = more cells survive
LOU-NH91 = system: LOU-NH91
Procedure, shortened: (§1)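 The day after seeding in 1536-well plates, lung cancer cell lines were treated by pin tool with a single drug, or with a fixed anchor-drug dose together with five library-drug doses (not always all listed) in √10 steps. After 5 days, a combined fix-and-stain solution (final 0.05% Triton X-100, 1% formaldehyde, 1 ug/ml Hoechst) was added. Nuclei counted on 4× images gave relative viability as treated counts over vehicle counts, reported as the median of duplicate plates.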

HCC-366 = system: HCC-366
Procedure, shortened: as §1

HCC-44 = system: HCC-44
Procedure, shortened: as §1

Calu-6 = system: Calu-6
Procedure, shortened: as §1

NCI-H1299 = system: NCI-H1299
Procedure, shortened: as §1

NCI-H1437 = system: NCI-H1437
Procedure, shortened: as §1

IA-LM = system: IA-LM
Procedure, shortened: as §1

NCI-H3122 = system: NCI-H3122
Procedure, shortened: as §1

NCI-H2085 = system: NCI-H2085
Procedure, shortened: as §1

EBC-1 = system: EBC-1
Procedure, shortened: as §1

A549 = system: A549
Procedure, shortened: as §1

NCI-H1703 = system: NCI-H1703
Procedure, shortened: as §1

`O=c1cc(N2CCOCC2)oc2c(-c3cccc4c3sc3ccccc34)cccc12` + CC1(C)CCC(c2ccc(Cl)cc2)=C(CN2CCN(c3ccc(C(=O)NS(=O)(=O)c4ccc(N[C@H](CCN5CCOCC5)CSc5ccccc5)c(S(=O)(=O)C(F)(F)F)c4)cc3)CC2)C1 [Navitoclax] (partner 0.5 µM) gave a relative viability (LOU-NH91; first compound 0.01 µM) of 0.637, a relative viability (LOU-NH91; first compound 0.03162 µM) of 0.631 and a relative viability (LOU-NH91; first compound 0.1 µM) of 0.695. For the same compound, the relative viability (LOU-NH91; first compound 0.3162 µM) was 0.747, the relative viability (LOU-NH91; first compound 1 µM) was 0.689 and the relative viability (HCC-366; first compound 0.01 µM) was 1.11. For the same compound, the relative viability (HCC-366; first compound 0.03162 µM) was 1.1, the relative viability (HCC-366; first compound 0.1 µM) was 1.08 and the relative viability (HCC-366; first compound 0.3162 µM) was 1. The relative viability (HCC-366; first compound 1 µM) was 1.04, the relative viability (HCC-44; first compound 0.01 µM) was 0.854 and the relative viability (HCC-44; first compound 0.03162 µM) was 0.94. It also gave a relative viability (HCC-44; first compound 0.1 µM) of 0.963, a relative viability (HCC-44; first compound 0.3162 µM) of 0.887 and a relative viability (HCC-44; first compound 1 µM) of 0.931. The relative viability (Calu-6; first compound 0.01 µM) was 0.795, the relative viability (Calu-6; first compound 0.03162 µM) was 0.786 and the relative viability (Calu-6; first compound 0.1 µM) was 0.967. It also gave a relative viability (Calu-6; first compound 0.3162 µM) of 0.86, a relative viability (Calu-6; first compound 1 µM) of 0.933 and a relative viability (NCI-H1299; first compound 0.01 µM) of 1.02. The relative viability (NCI-H1299; first compound 0.03162 µM) was 1.06, the relative viability (NCI-H1299; first compound 0.1 µM) was 1.08 and the relative viability (NCI-H1299; first compound 0.3162 µM) was 1. For the same compound, the relative viability (NCI-H1299; first compound 1 µM) was 1.04, the relative viability (NCI-H1437; first compound 0.01 µM) was 1.05 and the relative viability (NCI-H1437; first compound 0.03162 µM) was 1.13. The relative viability (NCI-H1437; first compound 0.1 µM) was 1.16, the relative viability (NCI-H1437; first compound 0.3162 µM) was 1.05 and the relative viability (NCI-H1437; first compound 1 µM) was 1.05. It also gave a relative viability (IA-LM; first compound 0.01 µM) of 0.909, a relative viability (IA-LM; first compound 0.03162 µM) of 0.667 and a relative viability (IA-LM; first compound 0.1 µM) of 0.902. The relative viability (IA-LM; first compound 0.3162 µM) was 0.561, the relative viability (IA-LM; first compound 1 µM) was 0.876 and the relative viability (NCI-H3122; first compound 0.01 µM) was 1.02. It also gave a relative viability (NCI-H3122; first compound 0.03162 µM) of 0.981, a relative viability (NCI-H3122; first compound 0.1 µM) of 1.02 and a relative viability (NCI-H3122; first compound 0.3162 µM) of 0.966. For the same compound, the relative viability (NCI-H3122; first compound 1 µM) was 0.985, the relative viability (NCI-H2085; first compound 0.01 µM) was 1.08 and the relative viability (NCI-H2085; first compound 0.03162 µM) was 1.19. For the same compound, the relative viability (NCI-H2085; first compound 0.1 µM) was 1.17, the relative viability (NCI-H2085; first compound 0.3162 µM) was 1.08 and the relative viability (NCI-H2085; first compound 1 µM) was 1.02. For the same compound, the relative viability (EBC-1; first compound 0.01 µM) was 0.469, the relative viability (EBC-1; first compound 0.03162 µM) was 0.377 and the relative viability (EBC-1; first compound 0.1 µM) was 0.353. The relative viability (EBC-1; first compound 0.3162 µM) was 0.408, the relative viability (EBC-1; first compound 1 µM) was 0.406 and the relative viability (A549; first compound 0.01 µM) was 1.22. The relative viability (A549; first compound 0.03162 µM) was 1.17, the relative viability (A549; first compound 0.1 µM) was 1.28 and the relative viability (A549; first compound 0.3162 µM) was 1.23. For the same compound, the relative viability (A549; first compound 1 µM) was 1.2, the relative viability (NCI-H1703; first compound 0.01 µM) was 1.34 and the relative viability (NCI-H1703; first compound 0.03162 µM) was 1.28. It also gave a relative viability (NCI-H1703; first compound 0.1 µM) of 1.24, a relative viability (NCI-H1703; first compound 0.3162 µM) of 1.07 and a relative viability (NCI-H1703; first compound 1 µM) of 1.01.
`CCN(CC)CCCCNc1ncc2cc(-c3cc(OC)cc(OC)c3)c(NC(=O)NC(C)(C)C)nc2n1` + CC1(C)CCC(c2ccc(Cl)cc2)=C(CN2CCN(c3ccc(C(=O)NS(=O)(=O)c4ccc(N[C@H](CCN5CCOCC5)CSc5ccccc5)c(S(=O)(=O)C(F)(F)F)c4)cc3)CC2)C1 [Navitoclax] (partner 0.5 µM) gave a relative viability (LOU-NH91; first compound 0.01 µM) of 0.611, a relative viability (LOU-NH91; first compound 0.03162 µM) of 0.674 and a relative viability (LOU-NH91; first compound 0.1 µM) of 0.718. It also gave a relative viability (LOU-NH91; first compound 0.3162 µM) of 0.795, a relative viability (LOU-NH91; first compound 1 µM) of 0.722 and a relative viability (HCC-366; first compound 0.01 µM) of 1.16. For the same compound, the relative viability (HCC-366; first compound 0.03162 µM) was 1.09, the relative viability (HCC-366; first compound 0.1 µM) was 1.2 and the relative viability (HCC-366; first compound 0.3162 µM) was 1.27. It also gave a relative viability (HCC-366; first compound 1 µM) of 1.2, a relative viability (HCC-44; first compound 0.01 µM) of 1.01 and a relative viability (HCC-44; first compound 0.03162 µM) of 0.997. It also gave a relative viability (HCC-44; first compound 0.1 µM) of 1.02, a relative viability (HCC-44; first compound 0.3162 µM) of 1.1 and a relative viability (HCC-44; first compound 1 µM) of 0.937. For the same compound, the relative viability (Calu-6; first compound 0.01 µM) was 0.729, the relative viability (Calu-6; first compound 0.03162 µM) was 0.946 and the relative viability (Calu-6; first compound 0.1 µM) was 1.03. It also gave a relative viability (Calu-6; first compound 0.3162 µM) of 1.01, a relative viability (Calu-6; first compound 1 µM) of 0.748 and a relative viability (NCI-H1299; first compound 0.01 µM) of 1.08. The relative viability (NCI-H1299; first compound 0.03162 µM) was 1.01, the relative viability (NCI-H1299; first compound 0.1 µM) was 1.08 and the relative viability (NCI-H1299; first compound 0.3162 µM) was 1.09. For the same compound, the relative viability (NCI-H1299; first compound 1 µM) was 1.01, the relative viability (NCI-H1437; first compound 0.01 µM) was 1.11 and the relative viability (NCI-H1437; first compound 0.03162 µM) was 1.1. It also gave a relative viability (NCI-H1437; first compound 0.1 µM) of 1.35, a relative viability (NCI-H1437; first compound 0.3162 µM) of 1.22 and a relative viability (NCI-H1437; first compound 1 µM) of 1.04. The relative viability (IA-LM; first compound 0.01 µM) was 0.746, the relative viability (IA-LM; first compound 0.03162 µM) was 0.882 and the relative viability (IA-LM; first compound 0.1 µM) was 0.969. The relative viability (IA-LM; first compound 0.3162 µM) was 0.73, the relative viability (IA-LM; first compound 1 µM) was 0.866 and the relative viability (NCI-H3122; first compound 0.01 µM) was 1.02. The relative viability (NCI-H3122; first compound 0.03162 µM) was 1.06, the relative viability (NCI-H3122; first compound 0.1 µM) was 1.06 and the relative viability (NCI-H3122; first compound 0.3162 µM) was 1.03. The relative viability (NCI-H3122; first compound 1 µM) was 1.07, the relative viability (NCI-H2085; first compound 0.01 µM) was 1.08 and the relative viability (NCI-H2085; first compound 0.03162 µM) was 1.22. The relative viability (NCI-H2085; first compound 0.1 µM) was 1.33, the relative viability (NCI-H2085; first compound 0.3162 µM) was 1.22 and the relative viability (NCI-H2085; first compound 1 µM) was 1.06. For the same compound, the relative viability (EBC-1; first compound 0.01 µM) was 0.339, the relative viability (EBC-1; first compound 0.03162 µM) was 0.469 and the relative viability (EBC-1; first compound 0.1 µM) was 0.442. For the same compound, the relative viability (EBC-1; first compound 0.3162 µM) was 0.357, the relative viability (EBC-1; first compound 1 µM) was 0.37 and the relative viability (A549; first compound 0.01 µM) was 1.16. It also gave a relative viability (A549; first compound 0.03162 µM) of 1.24, a relative viability (A549; first compound 0.1 µM) of 1.53 and a relative viability (A549; first compound 0.3162 µM) of 1.23. It also gave a relative viability (A549; first compound 1 µM) of 1.07, a relative viability (NCI-H1703; first compound 0.01 µM) of 1.07 and a relative viability (NCI-H1703; first compound 0.1 µM) of 1.04. For the same compound, the relative viability (NCI-H1703; first compound 0.3162 µM) was 1.32 and the relative viability (NCI-H1703; first compound 1 µM) was 0.925.
